Measurements published in patent US10738028B2, “Spiro three-membered ring, spiro five-membered ring peptide deformylase inhibitor and use thereof in antibacteria and anti-tumor” (priority 2016, dated 2020).

Legend:
Assay type in all cases: cell-based
[1] = tested on: methicillin-resistant Staphylococcus epidermidis (MRSE); experiment: MIC, two-fold agar dilution (CLSI), clinical isolates
Procedure, shortened: (§1)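 CLSI two-fold agar dilution; MIC of test samples read per tested strain.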

[2] = tested on: methicillin-resistant Staphylococcus aureus (MRSA); experiment: as above
Procedure, shortened: as §1

[3] = tested on: methicillin-sensitive Staphylococcus aureus (MSSA); experiment: as above
Procedure, shortened: as §1

[4] = tested on: Enterococcus faecalis (EFA); experiment: as above
Procedure, shortened: as §1

[5] = tested on: Moraxella catarrhalis (BCA); experiment: as above
Procedure, shortened: as §1

[6] = tested on: Enterococcus faecium (EFM); experiment: as above
Procedure, shortened: as §1

[7] = tested on: Escherichia coli (including ESBLs, non-ESBLs); experiment: as above
Procedure, shortened: as §1

[8] = tested on: Streptococcus pneoumoniae (SPN); experiment: as above; details: strain SPN 16-4
Procedure, shortened: as §1

[9] = tested on: methicillin-sensitive Staphylococcus epidermidis (MSSE); experiment: as above
Procedure, shortened: as §1

[10] = tested on: HCT-116 colorectal cancer cell line; experiment: CCK-8 proliferation inhibition; details: 72 hours, CCK-8
Procedure, shortened: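 Proliferation over 72 hours of compound treatment was measured with CCK-8 against a 1‰ DMSO control.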

[11] = tested on: BEL-7402 liver cancer cell line; experiment: CCK-8 proliferation inhibition
Source text: (§2) 2. The present invention adopts the CCK-8 method to determine the proliferation inhibition effect of the spiro three-membered ring, spiro five-membered ring peptide deformylase inhibitor as described in Examples 1-80 against colorectal cancer cells, lung cancer cells, gastric cancer cells, liver cancer cells, and the like. […] The compound having the best activity synthesized in Example 64 was further tested for its inhibitory activity against other tumor cells including T cell leukemia, acute myeloid leukemia, cervical cancer, breast cancer, prostate cancer and osteosarcoma, and the like (see Table 7).
(§3) (1) HCT-116 colorectal cancer cell line, A549 lung cancer cell line, MGC-803 gastric cancer cell line, BEL-7402 liver cancer cell line, Jurkat T cell leukemia cell line, HL60 acute myeloid leukemia cell line, Hela cervical cancer cell line, MCF-7 breast cancer cell line, PC3 prostate cancer cell line and SAOS-2 osteosarcoma cell line were made into single cell suspension, 180 μL of which was inoculated into 96-well culture plate, which was cultured overnight in CO2 incubator (37° C., 5% CO2, 95% air).
(§4) (2) Each of the spiro three-membered ring, spiro five membered ring peptide deformylase inhibitors was dissolved in DMSO, and was further formulated into drug solution with required different final concentration using corresponding cell culture medium. The drug solutions were added to the above cells respectively (20 μL/well), with the control group added with 1‰ DMSO, and cultured in a CO2 incubator for 72 hours.
(§5) (3) After incubation for 72 hours, the culture solution was decanted, and 100 μL of 1:10 diluted CCK-8 solution was added.
(§6) Wherein, in step (1), the concentration of the single cell suspension was 2000 cells/well.
(§7) Wherein, in step (2), HCT-116 cells were cultured in McCoy's 5A medium (containing 10% newborn bovine serum, 1% double antibody); A549 and PC3 cells were cultured in F12 medium (containing 10% newborn bovine serum, 1% double antibody); MGC-803, BEL-7402, SAOS-2, Jurkat and HL60 cells were cultured in 1640 medium (containing 10% newborn bovine serum, 1% double antibody); and MCF-7 and Hela cells were cultured in DMEM high glucose medium (containing 10% newborn bovine serum, 1% double antibody).

[12] = tested on: A549 lung cancer cell line; experiment: CCK-8 proliferation inhibition; details: Homo sapiens
Source text: as §2, §3, §4, §5, §6, §7

[13] = tested on: MGC-803 gastric cancer cell line; experiment: CCK-8 proliferation inhibition
Source text: as §2, §3, §4, §5, §6, §7

[14] = concentration of 30 μM, 72 hours, 30 µM

Cc1cnc(NC(=O)[C@@H]2CC3(CC3)CN2C(=O)[C@H](CC2CCCC2)CN(O)C=O)s1 [Example 29, (S)-5-((R)-3-cyclopentylmethyl-2-((N-hydroxyformamido)methyl)propionyl)-N-(5-methylthiazol-2-yl)-5-spiro[2.4]heptane-6-carboxamide]
79%: Inhibition of proliferation, Liver cancer BEL-7402 [11, 14]
13.6 µM: IC50 ([12]; A549, 72 hours)
0.06 µg/mL: MIC (anti-bacterial activity) ([1]; strain MRSE 15-1) | MIC (anti-bacterial activity) ([2]; strain MRSA 15-3) | MIC (anti-bacterial activity) ([9]; strain MSSE 15-6)
16 µg/mL: MIC (anti-bacterial activity) ([7]; strain ECO+ 15-1) | MIC (anti-bacterial activity) ([7]; strain ECO+ 15-3) | MIC (anti-bacterial activity) ([7]; strain ECO+ 15-4) | MIC (anti-bacterial activity) ([7]; strain ECO− 15-1) | MIC (anti-bacterial activity) ([7]; strain ECO− 15-2) | MIC (anti-bacterial activity) ([7]; strain ECO− 15-4)
0.125 µg/mL: MIC (anti-bacterial activity) ([1]; strain MRSE 15-2) | MIC (anti-bacterial activity) ([1]; strain MRSE 15-3) | MIC (anti-bacterial activity) ([1]; strain MRSE 15-7) | MIC (anti-bacterial activity) ([2]; strain MRSA 15-1) | MIC (anti-bacterial activity) ([2]; strain MRSA 15-2) | MIC (anti-bacterial activity) ([2]; strain MRSA 15-4) | MIC (anti-bacterial activity) ([3]; strain MSSA 15-3) | MIC (anti-bacterial activity) ([3]; strain MSSA 15-4) | MIC (anti-bacterial activity) ([3]; strain MSSA 15-5) | MIC (anti-bacterial activity) ([3]; strain MSSA 15-6) | MIC (anti-bacterial activity) ([5]; strain BCA 14-5) | MIC (anti-bacterial activity) ([5]; strain BCA 14-7) | MIC (anti-bacterial activity) ([9]; strain MSSE 15-3) | MIC (anti-bacterial activity) ([9]; strain MSSE 15-4) | MIC (anti-bacterial activity) ([9]; strain MSSE 15-5)
1 µg/mL: MIC (anti-bacterial activity) ([4]; strain EFA 15-3) | MIC (anti-bacterial activity) ([6]; strain EFM 15-1) | MIC (anti-bacterial activity) ([6]; strain EFM 15-2) | MIC (anti-bacterial activity) ([6]; strain EFM 15-4) | MIC (anti-bacterial activity) ([6]; strain EFM 15-5) | MIC (anti-bacterial activity) ([6]; strain EFM 15-6)
32 µg/mL: MIC (anti-bacterial activity) ([7]; strain ECO+ 15-2) | MIC (anti-bacterial activity) ([7]; strain ECO− 15-3)
78%: Inhibition of proliferation, Gastric cancer MGC-803 [13, 14]
7.84 µM: IC50 ([13]; Homo sapiens, MGC-803, 72 hours)
7.57 µM: IC50 ([11]; Homo sapiens, Bel-7402, 72 hours)
94%: HCT116 inhibition rate/% ([10]; concentration of 30 μM, 30 µM)
36%: inhibition at 30 µM ([12]; A549, 72 h, concentration of 30 μM)
2 µg/mL: MIC (anti-bacterial activity) ([4]; strain EFA 15-9)
0.25 µg/mL: Anti-bacterial activity (MIC), strain BCA 14-10 ([5]; clinical isolate BCA 14-10) | MIC (anti-bacterial activity) ([5]; strain BCA 14-6) | MIC (anti-bacterial activity) ([5]; strain BCA 14-8)
8.96 µM: IC50 ([10]; Homo sapiens, HCT-116)
0.5 µg/mL: MIC (anti-bacterial activity) ([5]; strain BCA 14-1) | MIC (anti-bacterial activity) ([5]; strain BCA 14-4) | MIC (anti-bacterial activity) ([6]; strain EFM 15-3)
4 µg/mL: MIC (anti-bacterial activity) ([4]; strain EFA 15-1) | MIC (anti-bacterial activity) ([4]; strain EFA 15-2) | MIC (anti-bacterial activity) ([4]; strain EFA 15-4) | MIC (anti-bacterial activity) ([4]; strain EFA 15-5) | MIC (anti-bacterial activity) ([4]; strain EFA 15-6) | MIC (anti-bacterial activity) [8]
